Test results from patent publication US6350780B1, “Methods and compositions for drug delivery” (Allergan Sales, Inc., priority 1995, dated 2002).

Legend:
[1] = tested on: eye of a mammal suffering high intraocular pressure; assay: intraocular pressure after instillation into the eye of a mammal suffering high intraocular pressure; assay type: in vivo; conditions: topical instillation in ophthalmically acceptable carrier; mammal with high intraocular pressure
Method: This compound comprises the calcium chelator BAPTA blocked with three acetoxymethyl ester (AM) moieties, and containing a single N-linked pACE group in place. The compound is dissolved in an ophthalmically acceptable carrier for topical delivery to the eye. As indicated above, such prodrug-pACE compounds are specifically targeted to cilliary epithelial and retinal cells, without substiantially affecting other cell types. In the above formulation, based on Formula B, the compound will bind acetylcholine receptors and cell surface acetylcholinesterase without being hydrolyzed thereby. The electronically neutral prodrug is then transported or permitted to penetrate the cell membrane, where cytoplasmic esterases convert the prodrug-pACE into the tetraacetic acid form of BAPTA capable of modulating the intracellular concentration of free Ca^++, thereby providing a neuroprotective function.
The compound is instilled into the eye of a mammal suffering high intraocular pressure. The prodrug-pACE compound passes through the cornea and the drug is concentrated within ciliary epithelial and retinal ganglion cells.

[2] = tested on: cultured human non-pigmented ciliary epithelial (NPE) cells; assay: regulatory volume decrease (RVD) following hyposmotic swelling of cultured NPE cells; assay type: cell-based; conditions: 20 µM BAPTA-AM loaded 30 minutes in isosmotic (290 mOsm) solution, then hyposmotic (198 mOsm) solution; cell volume by Coulter Counter; FIG. 1
Method: In this example, NPE cells were loaded in an isosmotic (290 mOsm) solution containing 20 µM BAPTA-AM for 30 minutes prior to suspension in a hyposmotoic (198 mOsm) solution. Control cells were subjected to the same hyposmotic solution but without prior loading with BAPTA. Changes in cell volume were measured using a Coulter Counter interfaced to a Coulter Channelyzer. It is noted that, following osmotic swelling, control cells regulate towards their original isosmotic volume while BAPTA-loaded cells remain swollen. The above findings indicate that intracellular BAPTA via chelation of Ca^2+i inhibits solute and osmotically obliged H2O efflux. Because the Ca^2+i-dependent ion flux pathways activated following osmotic cell swelling of NPE cells are involved in aqueous secretion, BAPTA will inhibit aqueous humor formation and, thus, lower IOP.

CC(=O)OCOC(=O)CN(CC(=O)OCOC(C)=O)c1ccccc1OCCOc1ccccc1N(CC(=O)OCOC(C)=O)CC(=O)OCOC(=O)CCC(=O)C(C)(C)C [Example 2]
intraocular pressure following treatment versus prior to treatment [1]: significantly lower

CC(=O)OCOC(=O)CN(CC(=O)OCOC(C)=O)c1ccccc1OCCOc1ccccc1N(CC(=O)OCOC(C)=O)CC(=O)OCOC(C)=O [BAPTA-AM, acetoxymethyl ester of BAPTA]
effect on regulatory volume decrease (RVD) [2]: totally depress
